Data published in paper PMC5131319, “Occurrence, temporal trends, and half-lives of perfluoroalkyl acids (PFAAs) in occupational workers in China” (Scientific Reports, 2016).
Several values for one entry are separate records, joined by “and”; a condition that tells them apart may be missing. Identical values can stand only once.

Legend:
[1] = PFAA concentration in morning urine of occupational workers (HPLC-ESI/MS/MS); type: in vivo, human; conditions: for Urine PFOA concentration / Urine PFOS concentration: individual workers
Procedure: The selected fluorochemical plant (Henxin Chemical Plant) in this study is one of the largest producers of PFOS-related chemicals in China and is located in Yingcheng, Hubei province. Perfluoroalkyl sulfonic acids (PFSAs) and perfluorotertiary amines are synthesized through an electro-chemical fluorination (ECF) process. We collected paired serum and urine samples from the occupational workers in the plant for five consecutive years, and the sampling activities were carried out in Nov. 2008, Nov. 2009, Nov. 2010, Dec. 2011, and Dec 2012, respectively. The Medical Research Ethics Committee, School of Medicine, Jianghan University, approved the ethics of this study, and all methods were performed in accordance with the relevant guidelines and regulations, moreover, all volunteers gave written informed consent. Demographic information of the donors, including gender, age, length of service, and work assignment, was collected with a questionnaire (Table S1). The sampled population included a total of 302 occupational workers, of which there were 89 female and 213 male participants. In total, 302 serum and 274 urine samples were collected.
The participants were told not to eat breakfast before the sampling, and morning urine samples and blood samples were collected. Serum was separated from the blood by centrifugation at 1100 × g at 4 °C for 10 min and then placed on ice. Serum samples were then transferred to our laboratory on the same day and stored in polypropylene containers at −20 °C until analysis.
All pre-treatment methods and instrument analysis of PFAAs in serum and urine samples are based on previous studies with minor modifications (see Supplementary Information)[3][31]. Based on the PFAA profiles in environmental matrices around the same plant in our previous study, only 3 main PFAAs, PFHxS, PFOA, and PFOS, were analyzed in the obtained serum and urine samples. Instrumental analysis of the PFAAs was performed by a HPLC-ESI/MS/MS system (HPLC: Waters 2695, MS: Waters Quattro Premier XE). The limits of detection (LODs) of PFHxS, PFOA, and PFOS were 0.020, 0.063, and 0.018 ng mL^−1 for serum samples and 0.008, 0.025, and 0.007 ng mL^−1 for urine samples, respectively. A procedural blank was performed for every batch of seven samples, and all of the blank levels were below the LODs. […] Details of quality assurance and quality control of the chemical analysis can be found in the Supplementary Information.
Urine samples were pretreated by solid phase extraction. Briefly, 1 mL of urine spiked with 5 ng of internal standard was added to a 15 - mL PP tube and diluted with 13 mL water. The solid phase extraction procedure was then performed following the previously described serum extraction procedure.

[2] = cited from earlier work; for Clrenal, median: fishery employees from Tangxun Lake
[3] = Fabric finishing agent department, N 8

Structure (SMILES) | Urine concentration, mean ([1]; All workers, N 274) [ng/mL] | Urine concentration, median ([1]; All workers, N 274) [ng/mL] | Urine concentration, mean ([1]; Electrolytic department, N 67) [ng/mL] | Urine concentration, median ([1]; Electrolytic department, N 67) [ng/mL] | Urine concentration, mean [1, 3] [ng/mL] | Urine concentration, median [1, 3] | Urine concentration, range [1, 3] [ng/mL] | Urine concentration, mean ([1]; Management office, N 76) [ng/mL] | Urine concentration, median ([1]; Management office, N 76) [ng/mL] | Urine concentration, mean ([1]; Research building, N 25) [ng/mL] | Urine concentration, median ([1]; Research building, N 25) [ng/mL] | Urine concentration, mean ([1]; Sulfonation department, N 98) [ng/mL] | Urine concentration, median ([1]; Sulfonation department, N 98) [ng/mL] | Clrenal, median [2] [mL/day/kg] | also measured
O=S(=O)(O)C(F)(F)C(F)(F)C(F)(F)C(F)(F)C(F)(F)C(F)(F)F [PFHxS, perfluorohexane sulfonate] | 3.9 | 1.7 | 2.3 | 1.3 | 3.5 | 2.4 ng/mL | 0.79 to 7.1 | 0.93 | 0.37 | 1.9 | 0.97 | 7.1 | 3.7 | 0.012 | –
O=C(O)C(F)(F)C(F)(F)C(F)(F)C(F)(F)C(F)(F)C(F)(F)C(F)(F)F [PFOA, perfluorooctanoic acid] | 4.3 | 1.9 | 6.7 | 3.5 | 5.1 | 1.5 ng/mL | 1.2 to 22.2 | 1.5 | 0.86 | 1.8 | 0.92 | 4.8 | 2.7 | – | Urine PFOA concentration ([1]; sampling year 2008): 5.18 ng/mL and 0.0901 ng/mL and 0.0937 ng/mL and 0.178 ng/mL and 2.21 ng/mL and 7.6 ng/mL and 0.0489 ng/mL and 3.75 ng/mL and 2.54 ng/mL and 2.88 ng/mL and 0.67 ng/mL and 2.31 ng/mL and 1.03 ng/mL and 1.26 ng/mL and 0.0447 ng/mL and 0.688 ng/mL and 2.24 ng/mL and 2 ng/mL and 1.47 ng/mL and 0.668 ng/mL and 0.709 ng/mL and 0.448 ng/mL and 4.18 ng/mL and 5 ng/mL and 8.09 ng/mL and 7.15 ng/mL and 6.68 ng/mL; Urine PFOA concentration ([1]; sampling year 2009): 3.45 ng/mL and 8.82 ng/mL and 14.8 ng/mL and 1.48 ng/mL and 15.8 ng/mL and 19.6 ng/mL and 6.9 ng/mL and 5.24 ng/mL and 1.14 ng/mL and 1.2 ng/mL and 1.69 ng/mL and 0.889 ng/mL and 4 ng/mL and 0.515 ng/mL and 2.24 ng/mL and 5.25 ng/mL and 1.05 ng/mL and 0.776 ng/mL and 0.537 ng/mL and 12.4 ng/mL and 4.34 ng/mL and 1.12 ng/mL and 15.3 ng/mL and 19.1 ng/mL and 10 ng/mL and 4.81 ng/mL
O=S(=O)(O)C(F)(F)C(F)(F)C(F)(F)C(F)(F)C(F)(F)C(F)(F)C(F)(F)C(F)(F)F [PFOS, perfluorooctanesulfonate] | 4.4 | 1.2 | 1.8 | 0.93 | 0.39 | LOD | – | 1.6 | 0.49 | 1.4 | 1.1 | 8.8 | 3.0 | 0.010 | Urine PFOS concentration ([1]; sampling year 2008): 0.918 ng/mL and 7.8 ng/mL and 7.66 ng/mL and 0.697 ng/mL and 0.425 ng/mL and 17.2 ng/mL and 3.94 ng/mL and 2.12 ng/mL and 0.736 ng/mL and 0.943 ng/mL and 2.18 ng/mL and 0.818 ng/mL and 0.217 ng/mL and 0.819 ng/mL and 0.291 ng/mL and 4.7 ng/mL and 7.69 ng/mL and 3.07 ng/mL and 0.465 ng/mL and 22.5 ng/mL and 3.09 ng/mL; Urine PFOS concentration ([1]; sampling year 2009): 0.361 ng/mL and 7.85 ng/mL and 2.17 ng/mL and 1.4 ng/mL and 0.831 ng/mL and 1.51 ng/mL and 0.198 ng/mL and 2.73 ng/mL and 0.47 ng/mL and 0.288 ng/mL and 0.078 ng/mL and 0.206 ng/mL and 0.094 ng/mL and 0.171 ng/mL and 0.84 ng/mL and 1.33 ng/mL and 0.14 ng/mL and 1.86 ng/mL and 2.58 ng/mL and 1.8 ng/mL; Urine PFOS concentration ([1]; sampling year 2010): 1.14 ng/mL and 0.258 ng/mL and 0.177 ng/mL and 64.2 ng/mL and 0.884 ng/mL and 0.714 ng/mL and 0.912 ng/mL and 0.855 ng/mL and 2.44 ng/mL and 0.39 ng/mL and 3.98 ng/mL and 0.314 ng/mL and 0.409 ng/mL and 1.98 ng/mL and 0.139 ng/mL and 14 ng/mL and 14.2 ng/mL and 7.14 ng/mL and 3.93 ng/mL; Urine PFOS concentration ([1]; sampling year 2011): 0.14 ng/mL and 0.17 ng/mL and 0.47 ng/mL and 49.90 ng/mL and 2.18 ng/mL and 0.43 ng/mL and 0.54 ng/mL and 5.08 ng/mL and 0.52 ng/mL and 0.29 ng/mL and 0.75 ng/mL and 0.51 ng/mL and 0.04 ng/mL and 0.70 ng/mL and 0.74 ng/mL and 1.78 ng/mL and 14.70 ng/mL and 7.74 ng/mL and 4.91 ng/mL and 2.24 ng/mL; Urine PFOS concentration ([1]; sampling year 2012): 0.7 ng/mL and 26.46 ng/mL and 0.46 ng/mL and 1.62 ng/mL and 0.22 ng/mL and 0.44 ng/mL and 0.58 ng/mL and 0.18 ng/mL and 0.5 ng/mL and 0.78 ng/mL and 0.1 ng/mL and 1.64 ng/mL and 0.06 ng/mL and 0.26 ng/mL and 0.12 ng/mL and 0.42 ng/mL and 7.26 ng/mL and 7.8 ng/mL and 9.72 ng/mL and 5.64 ng/mL; Clrenal values obtained from different sources, range [2]: 0.01 to 0.1 mL/day/kg
